Reference: the Kinase Knowledgebase extract (Sharma et al. 2016)

Columns and labels:
MAPK14 = MAPK14 (UniProt Q16539); assay: In vitro Inhibition of MAPK14 Kinase Activity
MAPK14 (BALB/cJ mice) = assay: In vivo Inhibition of LPS-induced TNF-alpha Production; settings: dose or concentration not given here
MAPK14 (human) = MAPK14 (human) (UniProt Q16539); assay: In vitro Inhibition of TNF-alpha Production in PBMC Cells
MAPK14 (human), sequence (Q16539 whole entry, looked up): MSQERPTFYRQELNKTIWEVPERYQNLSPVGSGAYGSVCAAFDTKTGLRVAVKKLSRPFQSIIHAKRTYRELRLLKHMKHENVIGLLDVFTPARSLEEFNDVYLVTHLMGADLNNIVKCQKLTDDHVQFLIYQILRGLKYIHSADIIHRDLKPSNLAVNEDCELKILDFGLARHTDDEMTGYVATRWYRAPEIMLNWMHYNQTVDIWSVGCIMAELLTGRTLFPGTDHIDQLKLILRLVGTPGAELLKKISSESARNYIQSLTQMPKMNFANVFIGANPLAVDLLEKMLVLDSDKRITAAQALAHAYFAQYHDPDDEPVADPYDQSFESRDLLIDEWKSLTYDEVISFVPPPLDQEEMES

MAPK14, sequence (Q16539 whole entry, looked up): as above

SMILES	IC50 (MAPK14) [nM]	inhibition (MAPK14 (BALB/cJ mice)) [%]	IC50 (MAPK14 (human)) [nM]
COC(=O)C(=O)c1c(-c2ccc(F)cc2)c(-c2ccncc2)c(N2CCNCC2)n1C	10000	52	28
Cn1c(Br)c(-c2ccncc2)c(-c2ccc(F)cc2)c1C#N	–	22	625
COC(=O)c1c(-c2ccc(F)cc2)c(-c2ccncc2)c(N2CCc3ccccc3C2)n1C	–	32	166
COC(=O)c1c(-c2ccc(F)cc2)c(-c2ccncc2)c(NCCN(C)C)n1C	–	-43	98
C[C@H](Nc1nccc(-c2cn(CCN3CCOCC3)cc2-c2ccc(F)cc2)n1)c1ccccc1	–	-21	4
CCOC(=O)c1[nH]cc(-c2ccncc2)c1-c1ccccc1	–	58	149
COC(=O)c1c(-c2ccc(F)cc2)c(-c2ccncc2)c(N2CCC(N)C2)n1C (configuration not stated)	–	25	237
CCOC(=O)c1c(-c2cc(F)cc(F)c2)c(-c2ccncc2)cn1C	–	-31	33
CC(=O)c1c(-c2ccc(F)cc2)c(-c2ccncc2)c(N2CCNCC2)n1C	10000	39	40
O=C(NCc1ccccc1)c1[nH]cc(-c2ccc(F)cc2)c1-c1ccncc1	–	-60	14
CCOC(=O)c1c(-c2ccc(C)cc2)c(-c2ccncc2)c(Br)n1C	–	-76	736
COC(=O)c1c(-c2ccc(F)cc2)c(-c2ccncc2)c(Nc2cccnc2)n1C	–	-10.5	57
COC(=O)c1c(-c2cccc(F)c2)c(-c2ccncc2)c(N2CCNCC2)n1C	–	49	69
COCC#Cc1c(-c2ccc(F)cc2)c(-c2ccncc2)c(C(=O)OC)n1C	–	-5	443
CCCc1c(-c2ccnc(N[C@@H](C)c3ccccc3)n2)c(-c2ccc(F)cc2)cn1CCN1CCOCC1	10000	-35	4
O=C1CCn2c(Br)c(-c3ccncc3)c(-c3ccc(F)cc3)c21	–	31	819
CCOC(=O)c1[nH]cc(-c2ccncc2)c1-c1ccc(F)c(F)c1	–	-32	560
CN(C)C(=O)c1c(-c2ccc(F)cc2)c(-c2ccncc2)cn1C	–	33	1380
CCOC(=O)c1[nH]cc(-c2ccncc2)c1-c1ccc(C)cc1	–	-218	136
CC(=O)c1c(-c2ccc(F)cc2)c(-c2ccncc2)c(N2CCN(C)CC2)n1C	–	40	370

SMILES	IC50 (MAPK14) [nM]	inhibition (MAPK14 (BALB/cJ mice)) [%]	IC50 (MAPK14 (human)) [nM]
Cn1c(Br)c(-c2ccncc2)c(-c2ccc(F)cc2)c1C(=O)OC(C)(C)C	–	-7	1890
CCOC(=O)c1c(-c2ccc(F)cc2)c(-c2ccncc2)c(N2CCNCC2)n1C	–	79	16
COC(=O)C1CCn2cc(-c3ccncc3)c(-c3ccc(F)cc3)c2C1=O (configuration not stated)	–	-9	326
CCCc1[nH]cc(-c2ccc(F)cc2)c1-c1ccnc(N[C@@H](C)c2ccccc2)n1	–	-19	10
CCC(=O)c1c(-c2ccc(F)cc2)c(-c2ccncc2)c(N2CCNCC2)n1C	–	32	67
CCOC(=O)c1[nH]cc(-c2ccncc2)c1-c1cc(F)cc(F)c1	–	-14	114
CCOC(=O)c1c(-c2ccc(F)cc2)c(-c2ccncc2)c(CCCOCc2ccccc2)n1C	–	51	248
CCCNC(=O)c1c(-c2ccc(F)cc2)c(-c2ccncc2)c(N2CCNCC2)n1C	10000	–	10000
CCOC(=O)c1c(-c2cccc(C(F)(F)F)c2)c(-c2ccncc2)c(N2CCNCC2)n1C	–	83	21
COC(=O)c1c(-c2ccncc2)c(-c2ccc(F)cc2)c(Br)n1C	–	-6	180
Cn1cc(-c2ccc(F)cc2)c(-c2ccncc2)c1N1CCNCC1	–	75	15
CC(=O)N1CCN(c2c(-c3ccncc3)c(-c3ccc(F)cc3)c(C#N)n2C)CC1	2000	81	154
COC(=O)c1c(-c2ccncc2)c(-c2ccc(F)cc2)c(C#CCN2CCOCC2)n1C	–	47	788
CNC(=O)c1c(-c2ccc(F)cc2)c(-c2ccncc2)c(N2CCNCC2)n1C	–	-7	106
COC(=O)c1c(-c2ccc(F)cc2)c(-c2ccncc2)c(NCCN2CCOCC2)n1C	–	44	50
COC(=O)C1CCn2c(NCCN3CCOCC3)c(-c3ccncc3)c(-c3ccc(F)cc3)c2C1=O (configuration not stated)	–	71	77
COC(=O)c1c(-c2ccc(F)cc2)c(-c2ccncc2)c(N2CCN(C(C)=O)CC2)n1C	–	57	1530
Cn1cc(-c2ccc(F)cc2)c(-c2ccncc2)c1CO	–	65	169
COC(=O)c1c(-c2ccc(F)cc2)c(-c2ccncc2)c(-c2ccc(N(C)C)cc2)n1C	–	-22	120
